Source: patent US6489166B1, “Plant regeneration method for mature seed-derived callus in zoysiagrass” (Korea Kumho Petrochemical Co., Ltd., priority 2001, dated 2002)
Read-outs that look alike come from different tables or passages of the source.

Legend:
[1] = system: Type I calli derived from mature seeds of zoysiagrass; settings: for Calli with green shoot (%) / Number of shoots per callus lump / Shoots over 2 mm (%): Type I calli, 2 weeks
Method: To examine the effects of various sugars on the plant regeneration efficiency from calli, the type I calli were dissected into lumps with a diameter of 2 mm and grown on the MS media containing 1 mg/L TDZ and 3% (w/v) fructose, galactose, glucose, maltose, or sucrose. For each treatment, 3 MS plates, each with 25 calli, were used. […] To determine the optimal concentration of maltose, the type I calli were grown on the MS media supplemented with various concentrations of maltose at 1.5, 3.0, 4.5, 6.0, 7.5, or 9%.
The effects of different sugars on the plant regeneration efficiency from calli were examined using the shoot induction media (SIM) supplemented with different sugars.
Type I calli were cultured on the MS medium containing 1 mg/L TDZ for 2 weeks. Each value in the second column represents a mean calculated from 25 calli per each experiment. Each value in the third column represents a mean calculated from 10 calli for each experiment.
Type I calli were cultured on the MS medium containing 1 mg/L TDZ and various concentrations of maltose for 2 weeks.

[2] = system: mature seeds of zoysiagrass; test: Callus induction from mature seeds on MS media with growth hormone combinations; format: cell-based, Zoysia japonica Steud.; settings: for Callus producing seeds (%) / Number of callus producing seeds: 6-benzylaminopurine 0 mg/L, MS, 3 months
Method: Seeds of zoysiagrass (Zoysia japonica Steud.), from which seed coats were first removed, were sterilized by soaking in 70% ethyl alcohol for 1 min and subsequently in 5% sodium hypochlorite solution supplemented with 0.001% (v/v) Tween 20 for 15 min. The sterilized seeds were then thoroughly rinsed with sterilized distilled water 3-4 times. They were then germinated and grown for 2 weeks on the N6 media (pH 5.8) containing 1 mg/L 2,4-dichlorophenoxyacetic acid, 3% sucrose, and 0.2% gelite and subject to callus induction. The callus induction and growth was carried out in a controlled environment culture room set at 26° C. and 70% humidity in the dark.
(§1) To examine the effects of plant growth hormones on the callus induction efficiency and the callus morphology, sterilized seeds were placed and cultured on the MS plates supplemented with 4 mg/L thiamine-HCl and 100 mg/L α-ketoglutaric acid. The MS plates, each with a diameter of 9 cm, were further supplemented with various amounts of 2,4-dichlorophenoxyacetic acid (0, 1, 2, 4, 8 mg/L) and 6-benzylaminopurine (0, 0.02, 0.2, 2, 4 mg/L). One hundred seeds were grown per each MS plate, and 3 plates were used for each treatment group. After three months, the number of seeds from which calli had been induced was counted. For the morphological classification of calli, calli were induced and grown on the MS media supplemented with 6-benzylaminopurine and 2,4-dichlorophenoxyacetic acid under the identical condition as described above for three months. They could be morphologically classified into four distinct groups (I-IV), based on the callus morphology, color, and rigidity.
To investigate the effects of plant growth hormones on the callus induction, the mature seed-derived callus induction rates were measured on the MS media supplemented with different amounts of 2,4-dichlorophenoxyacetic acid and 6-benzylaminopurine after grown for three months.
Seeds were plated and grown on the MS media containing 4 mg/L thiamine-HCl, 100 mg/L α-ketoglutaric acid, and different concentration combinations of 2,4-dichlorophenoxyacetic acid and 6-benzylaminopurine for 3 months.

[3] = system: callus derived from mature seeds of zoysiagrass; test: Morphology (types I-IV) of callus induced with growth hormone combinations; format: cell-based, Zoysia japonica Steud.; settings: 6-benzylaminopurine 0 mg/L, MS, 3 months
Method: as §1
Calli induced on the MS media supplemented with different concentration combinations of 2,4-dichlorophenoxyacetic acid and 6-benzylaminopurine were morphologically and physiologically analysed. Four distinct callus types (types I to IV) could be apparently discriminated by callus color, morphology, and rigidity (FIG. 1).
Seeds were plated on the MS media containing 4 mg/L thiamine-HCl, 100 mg/L α-ketoglutaric acid, and different concentration combinations of 2,4-dichlorophenoxyacetic acid and 6-benzylaminopurine for 3 months. Callus morphologies were rated by; type I: with yellow and differentiated structure, type II: with white, non-friable, and compact structure, type III: with yellow, friable, and compact structure, Type IV: with whitish yellow, friable, soft, and watery appearance. Type I˜III represents the sum of the numbers of types I to III.

[4] = system: Type I calli derived from mature seeds of zoysiagrass; test: Effects of cytokinins on shoot induction from callus; format: cell-based, Zoysia japonica Steud.; settings: for Number of shoots over 5 mm / Number of shoots per callus lump: Type I calli, MS with 30 g/L maltose, 2 weeks
Method: The media were additionally supplemented with 1 or 4 mg/L of kinetin, 6-benzylaminopurine, or TDZ. Each treatment consisted of 3 MS plates, each with 16 calli.

[5] = system: Type I calli derived from mature seeds of zoysiagrass; test: as above; format: cell-based, Zoysia japonica Steud.; settings: 44 Type I calli tested, MS with 30 g/L maltose, 2 weeks
[6] = maltose 15 g/L, MS with 1 mg/L TDZ
[7] = maltose 30 g/L, MS with 1 mg/L TDZ
[8] = maltose 45 g/L, MS with 1 mg/L TDZ
[9] = maltose 60 g/L, MS with 1 mg/L TDZ
[10] = maltose 75 g/L, MS with 1 mg/L TDZ
[11] = maltose 90 g/L, MS with 1 mg/L TDZ
[12] = sugar 30 g/L, MS medium with 1 mg/L TDZ
[13] = 2,4-dichlorophenoxyacetic acid 1 mg/L
[14] = 2,4-dichlorophenoxyacetic acid 2 mg/L
[15] = 2,4-dichlorophenoxyacetic acid 4 mg/L
[16] = 2,4-dichlorophenoxyacetic acid 8 mg/L

For `OC[C@H]1O[C@H](O[C@H]2[C@H](O)[C@@H](O)C(O)O[C@@H]2CO)[C@H](O)[C@@H](O)[C@@H]1O` (mixture of isomers) [Maltose, maltose], the “Colour of leaf and stem margins of regenerated plants” value [1] was “exhibited color caused by accumulation of anthocyanin-related pigments”, the “Physical stress on cultured cells (anthocyanin accumulation in regenerated shoots)” value [1] was “confers a physical stress on the cultured cells” and the “Calli with green shoot (%)” value [1, 6] was 37.3%. The “Number of shoots per callus lump” value [1, 6] was 9.9 ± 0.1, the “Shoots over 2 mm (%)” value [1, 6] was 45.2 ± 3.4% and the “Calli with green shoot (%)” value [1, 7] was 36.0%. The “Number of shoots per callus lump” value [1, 7] was 12.9 ± 1.2, the “Shoots over 2 mm (%)” value [1, 7] was 51.4 ± 3.9% and the “Calli with green shoot (%)” value [1, 8] was 32.0%. The “Number of shoots per callus lump” value [1, 8] was 10.2 ± 1.3, the “Shoots over 2 mm (%)” value [1, 8] was 32.1 ± 3.6% and the “Calli with green shoot (%)” value [1, 9] was 29.3%. For the same molecule, the “Number of shoots per callus lump” value [1, 9] was 4.9 ± 0.6, the “Shoots over 2 mm (%)” value [1, 9] was 14.5 ± 5.5% and the “Calli with green shoot (%)” value [1, 10] was 30.7%. For the same molecule, the “Number of shoots per callus lump” value [1, 10] was 8.3 ± 0.9, the “Shoots over 2 mm (%)” value [1, 10] was 27.3 ± 4.0% and the “Calli with green shoot (%)” value [1, 11] was 28.0%. The “Number of shoots per callus lump” value [1, 11] was 2.5 ± 0.3, the “Shoots over 2 mm (%)” value [1, 11] was 6.7 ± 0.2% and the “Calli with green shoot (%)” value [1, 12] was 33.3 ± 2.7%. For the same molecule, the “Number of shoots per callus lump” value [1, 12] was 9.4 ± 0.3 and the “Shoots over 2 mm (%)” value [1, 12] was 46.4 ± 5.0%.

With `O=C(O)COc1ccc(Cl)cc1Cl` [2,4-dichlorophenoxyacetic acid] the “Callus producing seeds (%)” value [2, 13] was 15.5%, the “Number of callus producing seeds” value [2, 13] was 47 and the “Callus producing seeds (%)” value [2, 14] was 10.7%. The “Number of callus producing seeds” value [2, 14] was 18, the “Callus producing seeds (%)” value [2, 15] was 15.7% and the “Number of callus producing seeds” value [2, 15] was 19. For the same molecule, the “Callus producing seeds (%)” value [2, 16] was 11.1%, the “Number of callus producing seeds” value [2, 16] was 38 and the “Fate of induced calli” value ([2]; MS media with higher than 4 mg/L of the hormone) was “the calli became brownish as they grew and eventually died”. The “Calli Type I˜III (sum of types I to III) (%)” value (“Calli Type I˜III … (%)” below) [3, 13] was 8.5%, the “Calli showing Type I morphology (%)” value [3, 13] was 4.3% and the “Calli showing Type II morphology (%)” value [3, 13] was 0 (0) %. The “Calli showing Type III morphology (%)” value [3, 13] was 4.3%, the “Calli showing Type IV morphology (%)” value [3, 13] was 91.5% and the “Number of calli Type I˜III (sum of types I to III)” value (shortened to “Number of calli Type I˜III”) [3, 13] was 4. For the same molecule, the “Number of calli showing Type I morphology” value [3, 13] was 2, the “Number of calli showing Type II morphology” value [3, 13] was 0 (0) and the “Number of calli showing Type III morphology” value [3, 13] was 2. The “Number of calli showing Type IV morphology” value [3, 13] was 43, the “Calli Type I˜III … (%)” value [3, 14] was 5.6% and the “Calli showing Type I morphology (%)” value [3, 14] was 0 (0) %. The “Calli showing Type II morphology (%)” value [3, 14] was 0 (0) %, the “Calli showing Type III morphology (%)” value [3, 14] was 5.6% and the “Calli showing Type IV morphology (%)” value [3, 14] was 94.4%. For the same molecule, the “Number of calli Type I˜III” value [3, 14] was 1, the “Number of calli showing Type I morphology” value [3, 14] was 0 (0) and the “Number of calli showing Type II morphology” value [3, 14] was 0 (0). The “Number of calli showing Type III morphology” value [3, 14] was 1, the “Number of calli showing Type IV morphology” value [3, 14] was 17 and the “Calli Type I˜III … (%)” value [3, 15] was 5.3%. For the same molecule, the “Calli showing Type I morphology (%)” value [3, 15] was 0 (0) %, the “Calli showing Type II morphology (%)” value [3, 15] was 0 (0) % and the “Calli showing Type III morphology (%)” value [3, 15] was 5.3%. For the same molecule, the “Calli showing Type IV morphology (%)” value [3, 15] was 94.7%, the “Number of calli Type I˜III” value [3, 15] was 1 and the “Number of calli showing Type I morphology” value [3, 15] was 0 (0). For the same molecule, the “Number of calli showing Type II morphology” value [3, 15] was 0 (0), the “Number of calli showing Type III morphology” value [3, 15] was 1 and the “Number of calli showing Type IV morphology” value [3, 15] was 18. The “Calli Type I˜III … (%)” value [3, 16] was 0 (0) %, the “Calli showing Type I morphology (%)” value [3, 16] was 0 (0) % and the “Calli showing Type II morphology (%)” value [3, 16] was 0 (0) %. For the same molecule, the “Calli showing Type III morphology (%)” value [3, 16] was 0 (0) %, the “Calli showing Type IV morphology (%)” value [3, 16] was 100% and the “Number of calli Type I˜III” value [3, 16] was 0 (0). The “Number of calli showing Type I morphology” value [3, 16] was 0 (0), the “Number of calli showing Type II morphology” value [3, 16] was 0 (0) and the “Number of calli showing Type III morphology” value [3, 16] was 0 (0). For the same molecule, the “Number of calli showing Type IV morphology” value [3, 16] was 38.

In the case of `O=C(CO)[C@@H](O)[C@H](O)[C@H](O)CO` [Fructose, fructose], the “Calli with green shoot (%)” value [1, 12] is reported as 17.3 ± 2.7%, the “Number of shoots per callus lump” value [1, 12] is reported as 4.4 ± 0.8 and the “Shoots over 2 mm (%)” value [1, 12] is reported as 12.6 ± 3.0%.

With `O=C[C@H](O)[C@@H](O)[C@@H](O)[C@H](O)CO` [Galactose, galactose] the “Calli with green shoot (%)” value [1, 12] was 0%, the “Number of shoots per callus lump” value [1, 12] was 0 and the “Shoots over 2 mm (%)” value [1, 12] was 0%.

With `c1coc(CNc2ncnc3[nH]cnc23)c1` [Kinetin, kinetin] the “Number of shoots over 5 mm” value ([4]; growth regulator 1 mg/L) was 0, the “Number of shoots per callus lump” value ([4]; growth regulator 1 mg/L) was 3.0 and the “Number of shoots over 5 mm” value ([4]; growth regulator 4 mg/L) was 0. The “Number of shoots per callus lump” value ([4]; growth regulator 4 mg/L) was 1.7, the “Number of calli with shoots” value ([5]; growth regulator 1 mg/L) was 8 and the “Number of calli with shoots” value ([5]; growth regulator 4 mg/L) was 7.

For `OC[C@H]1O[C@@](CO)(O[C@H]2O[C@H](CO)[C@@H](O)[C@H](O)[C@H]2O)[C@@H](O)[C@@H]1O` [Sucrose, sucrose], the “Calli with green shoot (%)” value [1, 12] was 45.3 ± 9.3%, the “Number of shoots per callus lump” value [1, 12] was 4.5 ± 0.1 and the “Shoots over 2 mm (%)” value [1, 12] was 4.5 ± 0.2%.

In the case of `O=C(Nc1ccccc1)Nc1cnns1` [TDZ, thidiazuron], the “Number of shoots over 5 mm” value ([4]; growth regulator 1 mg/L) is reported as 14, the “Number of shoots per callus lump” value ([4]; growth regulator 1 mg/L) is reported as 4.8 and the “Number of shoots over 5 mm” value ([4]; growth regulator 4 mg/L) is reported as 1. The “Number of shoots per callus lump” value ([4]; growth regulator 4 mg/L) was 4.1, the “Growth of regenerated plants” value ([4]; high concentration of TDZ) was “severely retarded” and the “Morphology of regenerated plants” value ([4]; high concentration of TDZ) was “plants with abnormal morphology were observed at a high frequency”. For the same molecule, the “Plant regeneration and further growth” value ([4]; only the TDZ included) was “plant regeneration was observed, but the plants did not continue growing”, the “Number of calli with shoots” value ([5]; growth regulator 1 mg/L) was 17 and the “Number of calli with shoots” value ([5]; growth regulator 4 mg/L) was 10.
